Reference: ChEMBL document CHEMBL1157284, “Role of glutamate and dopamine receptors in the psychopharmacological profile of the indole alkaloid psychollatine” (2006)
Active and inactive are the calls of the source. The rule behind the calls is not given here.

Experiments:
Mus musculus [1] = test: Anticonvulsant activity against NMDA-induced seizures in mouse assessed as seizure latency at 50 mg/kg, ip administered 30 mins prior to NMDA challenge; type: functional; conditions: route intraperitoneal
Mus musculus [2] = test: Protective effect against amphetamine-induced lethality in mouse at 10 mg/kg, ip administered 30 mins prior to amphetamine challenge measured after 24 hrs; type: functional, organism-based; parameters: dose 10 mg/kg
Mus musculus [3] = test: Protective effect against amphetamine-induced lethality in mouse at 30 mg/kg, ip administered 30 mins prior to amphetamine challenge measured after 24 hrs; type: functional, organism-based; parameters: dose 30 mg/kg
Mus musculus [4] = test: Decrease in spontaneous locomotor activity in mouse at 100 mg/kg; type: functional, organism-based; parameters: dose 100 mg/kg
Mus musculus [5] = test: Antipsychotic activity against MK-801-induced hyperlocomotion in mouse at 100 mg/kg administered 30 mins prior to MK-801 challenge measured after 30 mins; type: functional, organism-based; parameters: dose 100 mg/kg
Mus musculus [6] = test: Decrease in spontaneous locomotor activity in mouse at 7.5 mg/kg; type: functional, organism-based; parameters: dose 7.5 mg/kg
Mus musculus [7] = test: Antipsychotic activity against MK-801-induced hyperlocomotion in mouse at 10 mg/kg administered 30 mins prior to MK-801 challenge measured after 30 mins; type: functional, organism-based; parameters: dose 10 mg/kg
Mus musculus [8] = test: Decrease in spontaneous locomotor activity in mouse at 10 mg/kg; type: functional, organism-based; parameters: dose 10 mg/kg
Mus musculus [9] = test: Antipsychotic activity against MK-801-induced hyperlocomotion in mouse at 7.5 mg/kg administered 30 mins prior to MK-801 challenge measured after 30 mins; type: functional, organism-based; parameters: dose 7.5 mg/kg
Mus musculus [10] = test: Protective effect against amphetamine-induced lethality in mouse at 100 mg/kg, ip administered 30 mins prior to amphetamine challenge measured after 24 hrs; type: functional, organism-based; parameters: dose 100 mg/kg
Mus musculus [11] = test: Anticonvulsant activity against NMDA-induced seizures in mouse assessed as seizure latency at 75 mg/kg, ip administered 30 mins prior to NMDA challenge; type: functional; conditions: route intraperitoneal
Mus musculus [12] = test: Inhibition of apomorphine-induced climbing behavior in mouse at 10 mg/kg, ip administered 30 mins prior to apomorphine challenge; type: functional, organism-based; parameters: dose 10 mg/kg
Mus musculus [13] = test: Anticonvulsant activity against NMDA-induced seizures in mouse assessed as seizure latency at 100 mg/kg, ip administered 30 mins prior to NMDA challenge; type: functional; conditions: route intraperitoneal
Mus musculus [14] = test: Protective effect against amphetamine-induced lethality in mouse at 3 mg/kg, ip administered 30 mins prior to amphetamine challenge measured after 24 hrs; type: functional, organism-based; parameters: dose 3 mg/kg
Mus musculus [15] = test: Anticonvulsant activity against NMDA-induced seizures in mouse assessed as seizure latency at 0.3 mg/kg, ip administered 30 mins prior to NMDA challenge; type: functional; conditions: route intraperitoneal
Mus musculus [16] = test: Inhibition of apomorphine-induced climbing behavior in mouse at 0.2 mg/kg, ip administered 30 mins prior to apomorphine challenge; type: functional, organism-based; parameters: dose 0.2 mg/kg
Mus musculus [17] = test: Protective effect against amphetamine-induced lethality in mouse at 4 mg/kg, ip administered 30 mins prior to amphetamine challenge measured after 24 hrs; type: functional, organism-based; parameters: dose 4 mg/kg

## COC(=O)C1=CO[C@@H](O[C@H]2O[C@H](CO)[C@@H](O)[C@H](O)[C@H]2O)[C@@H]2C([C@@H]3NCCc4c3[nH]c3ccccc43)=CC[C@H]12 [PSYCHOLLATINE]
Mus musculus [1]
  Activity: 850 s
Mus musculus [2]
  Activity: Active
Mus musculus [3]
  Activity: inactive
Mus musculus [4]
  Activity: Active
Mus musculus [5]
  Activity: Active
Mus musculus [6]
  Activity: inactive
Mus musculus [7]
  Activity: Active
Mus musculus [8]
  Activity: inactive
Mus musculus [9]
  Activity: Active
Mus musculus [10]
  Activity: inactive
Mus musculus [11]
  Activity: 1020 s
Mus musculus [12]
  Activity: Active
Mus musculus [13]
  Activity: 857.14 s
Mus musculus [14]
  Activity: Active

## C[C@]12N[C@H](Cc3ccccc31)c1ccccc12.O=C(O)/C=C\C(=O)O [DIZOCILPINE MALEATE]
Mus musculus [15]
  Activity: 360 s
Mus musculus [16]
  Activity: Active

## CN1C(=O)CN=C(c2ccccc2)c2cc(Cl)ccc21
Mus musculus [17]
  Activity: inactive

## CN(C)CCCN1c2ccccc2Sc2ccc(Cl)cc21
Mus musculus [17]
  Activity: Active
